Like-named read-outs stand apart in the source and are kept apart here.
Columns and labels:
[1] = tested on: serotonine-induced oedema; assay: Tests performed on serotonine-induced oedema; type: in vivo
Procedure: Tests performed on serotonine-induced oedema
The tests were carried out on groups each consisting of 10 animals. The percentage inhibition of oedema, in relation to the untreated controls, was determined for each of the animals. The data listed in Table 3 are the averages of the inhibition values.

[2] = tested on: carrageenin-induced oedema; assay: Inhibition of carrageenin-induced oedema; type: in vivo; details: 1.5 hours
Procedure: (§1) Inhibition of Kaolin- and carrageenin-induced oedema
(§2) The tests were carried out on groups each consisting of at least 10 animals. The percentage inhibition of oedema, in relation to the untreated controls, was determined for each of the animals, and the average values were calculated.

[3] = Inhibition of carrageenin-induced oedema; type: in vivo; details: in vivo; LD50/ED50; read-out: Therapeutical index LD50/ED50, carrageenin-oedema
Procedure: as §1, §2

[4] = Determination of ulcer index
rats = assay: Acute toxicity tests; type: in vivo; details: p.o., Litchfield-Wildoxon method
Procedure: (§3) The acute toxicity values of the compounds were determined on rats, after oral administration. The LD50 values were calculated according to the Litchfield-Wildoxon method.

kaolin-induced oedema = assay: Inhibition of kaolin-induced oedema; type: in vivo; details: 2 hours
Procedure: as §1, §2

[5] = Inhibition of kaolin-induced oedema; type: in vivo; details: in vivo; LD50/ED50; read-out: Therapeutical index LD50/ED50, kaolin-oedema
Procedure: as §1, §2

[6] = Analgesic effect by the hot-plate test; type: in vivo; details: 50 mg./kg. p.o.
Cotton granuloma = Cotton granuloma test; type: in vivo; details: 50 mg./kg.
[7] = Analgesic effect by the writhing test; type: in vivo; details: 100 mg./kg. p.o.
[8] = tested on: experimentally provoked fever; assay: Antipyretic activity (experimentally provoked fever); type: in vivo; design: unit not given here
Excerpt: Besides their antiphlogistic activities, some of the benzo(a)quinolizidine derivatives exert antipyretic effects as well. On the basis of the tests performed on experimentally provoked fever, the antipyretic activities of the compounds according to the invention surpass the effect of amidazophenum.

[9] = in vivo
Acute toxicity tests = type: in vivo; details: rat, in vivo, po; rats, Litchfield-Wildoxon method
Procedure: as §3

## COc1ccc2c(c1)c(CC(=O)O)c(C)n2C(=O)c1ccc(Cl)cc1 [Indomethacine, reference compound]
[1]; 25 mg./kg. p.o.
  Percentage inhibition 1 hour after administration (serotonine-induced oedema): 1.4%
[2]; 10 mg./kg. p.o.
  Inhibition of carrageenin-induced oedema 1.5 hours after administration: 26.7%
[3]
  selectivity ratio: 1.3
[4]; female
  Erosion: 1/10
  Ulcer: 3/10
[4]; in words
  ulcerogeneous effect: marked ulcerogeneous effect
[4]; male
  Erosion: 1/10
  Ulcer: 3/10
rats
  LD50: 12 mg/kg
kaolin-induced oedema; 10 mg./kg. p.o.
  Inhibition of kaolin-induced oedema 2 hours after administration: 27.2%
[5]
  selectivity ratio: 2.3
[6]
  Prolongation of the reaction time, % (2 hours after administration): no evaluable effect can be

## CCCCC1C(=O)N(c2ccccc2)N(c2ccccc2)C1=O [Phenylbutazone]
[1]; 100 mg./kg. p.o.
  Percentage inhibition 1 hour after administration (serotonine-induced oedema): 10.2%
Cotton granuloma
  Effect, % (cotton granuloma test): 19.6%
[7]
  Activity, % (reduction of the number of writhings in relation to the controls): 17.6%
[8]; 25 mg./kg. p.o., 1 hour after administration
  Variation of body temperature: -0.82
[8]; 25 mg./kg. p.o., 2 hours after administration
  Variation of body temperature: -0.84
[8]; 25 mg./kg. p.o., 3 hours after administration
  Variation of body temperature: -0.73
[8]; 50 mg./kg. p.o., 1 hour after administration
  Variation of body temperature: -1.05
[8]; 50 mg./kg. p.o., 2 hours after administration
  Variation of body temperature: -1.07
[8]; 50 mg./kg. p.o., 3 hours after administration
  Variation of body temperature: -0.76
[2]; 50 mg./kg. p.o.
  Inhibition of carrageenin-induced oedema 1.5 hours after administration: 24.3%
[9]
  Erosion: 0/10
Acute toxicity tests
  LD50: 1180 mg/kg
kaolin-induced oedema; 50 mg./kg. p.o.
  Inhibition of kaolin-induced oedema 2 hours after administration: 27.5%
[6]
  Prolongation of the reaction time, % (2 hours after administration): no evaluable effect can be

— patent publication US4102886A, “Process for the preparation of benzo(a)quinolizidine derivatives” (priority 1974, dated 1978)
